Test results: patent publication US9121040B2, “Process for rapid anaerobic digestion of biomass using microbes and the production of biofuels therefrom” (priority 2006, dated 2015)
Read-outs that look alike come from different tables or passages of the source. Marks after values point to notes of the source that are not given here.

Test system: ruminal microorganisms
Assay: Effect of sulfur reducing agents on gas, volatile fatty acid and alcohol production, timothy hay with ruminal microorganisms (Example 7)
Format: cell-based, mixed rumen microorganisms from cows
Settings: for H2 (% of all gases): 0.32 mmol/flask agent, timothy hay, mean of initial gas CO2 or N2 without added H2; for H2 (% of fermentation gas): molar percentage among gases excluding N2; for NDF remaining (% of DM): neutral detergent fiber after 24 h
Description: Initial in vitro experiments used timothy grass hay as substrate. For each digestion experiment, we obtained one-half liter of rumen contents from each of two ruminally-cannulated cows two to four hours after morning feeding. The digesta were mixed and ground in a Waring blender for 1 minute while being maintained under CO2 gas. Fluid was strained through four layers of cheese cloth followed by glass wool to remove large particles. Rumen fluid was added to a bicarbonate or 0.1 M sodium phosphate buffer with mineral salts.
Gas samples were collected continuously in mylar balloons, and gas volumes recorded at various time points. Glass tubing coated with epoxy was pushed into the opening on the mylar balloons. The tubing was connected to luer-lock connectors via nylon tubing. Samples were taken using glass syringes attached to the luer-lock connectors. Samples were stored in gas-tight vials for analysis of composition by GC with thermal conductivity detector. Rates of gas production were determined by fitting an inverted exponential equation.
The pH and reducing potential were determined using standard glass or platinum electrodes respectively, while maintaining the gas composition by keeping the flasks closed to the atmosphere with putty fitted around the electrodes. Liquid samples were collected at designated time points and analyzed by gas chromatography (GC) for alcohols (methanol, ethanol, propanol, butanol) volatile fatty acids (acetate, propionate, butyrate, etc). Rates of alcohol or VFA production were determined by fitting an inverted exponential equation.
True fiber digestibility was determined directly on the residue of digestion by refluxing in pH-neutral detergent solution for one hour, drying at 100° C. overnight and weighing.
An experiment was conducted to determine the effect of adding sulfur reducing agents on production of gases, volatile fatty acids, and alcohols. Twenty treatments were arranged in a 2×2×5 factorial design with factors of initial headspace gas (CO2 or N2), addition of 25 ml H2 gas to the initial headspace (+H2, —H2), or one of five sources of sulfur redox agents (0.32 mmol/flask): Na2SO4, Na2SO3, S^0, Na2S, or none. Samples (0.5 g timothy hay) were incubated for 24 hours and products measured as previously. At the start of the incubation, each 125-ml flask was perfused with respective gas. For treatments receiving added H2, 25 ml of perfused gas (at 1 atm pressure) was removed from the flask headspace and forced into the collection balloon. This removed gas was replaced with H2.

[1] = 24 h, mean of CO2 or N2 without added H2
[2] = mean of CO2 or N2 without added H2

| Structure (SMILES) | H2 (% of all gases) (24 h) | 1-propanol [1] | 2Acet + 2Butyr − Propionate (estimated production of H2 equivalent from fermentation of sugar to VFA) [1] | Acetate [1] | Acetate:Butyrate, mole ratio [1] | Acetate:Propion, mole ratio [1] | Butyrate [1] | CH4 (% of all gases) [1] | CH4 (% of fermentation gas) [1] | CH4:CO2 (molar ratio) [1] | CH4:H2 (molar conc. ratio) [1] | CH4 production [1] | CO2 (% of all gases) [1] | CO2 (% of fermentation gas) [1] | CO2 production [1] | Ethanol [1] | H2 equivalent (H2 + 4 CH4) [1] | H2 production [1] | Isobutyrate [1] | Isovalerate [1] | other results |
| --- | --- | --- | --- | --- | --- | --- | --- | --- | --- | --- | --- | --- | --- | --- | --- | --- | --- | --- | --- | --- | --- |
| O=S([O-])[O-].[Na+].[Na+] [SO3, Na2SO3] | 1.39^a % | 5.4^6 μmol | 1483^b μmol | 293^b μmol | 4.89^b | 2.52 | 152^b μmol | 0.12^b % | 0.82^b % | 0.010^b | 0.1^b | 6.6^b μmol | 47.9^ab % | 92.0^a % | 1002^b μmol | 25.8^5 μmol | 103^b | 76.6^a μmol | 9.8^b μmol | 12.3^b μmol | Eh: −264^bc; Propionate [1]: 293^b μmol; Total VFA [1]: 1206^b μmol; VFA-C [1]: 3071^b μmol; pH [1]: 6.72^a; valerate [1]: 2.33^c μmol; Methane production (H2 added at the beginning): ≤ 5 µmol; effect on methane production (each gas composition): strongly inhibited; H2 (% of fermentation gas) [1]: 8.18^a %; NDF remaining (% of DM) [2]: 57.2^a % of DM; valerate (starting with CO2, H2 added): 2.3 µmol; valerate (starting with CO2, H2 not added): 3.0 µmol; valerate (starting with N2, H2 added): 8.3 µmol; valerate (starting with N2, H2 not added): 1.7 µmol; hydrogen production (when H2 was added to initial headspace): -179 µmol |
| [S] [S^0] | 0.080^b % | 0 µmol | 2840^a μmol | 550^a μmol | 7.57^a | 2.72 | 198^a μmol | 4.61^a % | 13.8^a % | 0.171^a | 79^a | 334^a μmol | 50.5^a % | 86.0^b % | 1795^ab μmol | 0 µmol | 1340^a | 5.9^b μmol | 12.2^a μmol | 13.3^ab μmol | Eh: −249^abc; Propionate [1]: 550^a μmol; Total VFA [1]: 2287^a μmol; VFA-C [1]: 5634^a μmol; pH [1]: 6.43^b; valerate [1]: 17.1^b μmol; H2 (% of fermentation gas) [1]: 0.22^b %; NDF remaining (% of DM) [2]: 36.5^b % of DM |
| [Na+].[Na+].[S-2] [Na2S] | 0.078^b % | 0 µmol | 2660^a μmol | 541^a μmol | 6.91^a | 2.59 | 202^a μmol | 5.04^a % | 14.3^a % | 0.183^a | 69^a | 335^a μmol | 42.9^b % | 85.5^b % | 1773^ab μmol | 0 µmol | 1344^a | 5.2^b μmol | 13.5^a μmol | 14.7^a μmol | Eh [1]: −269^c; Propionate [1]: 541^a μmol; Total VFA [1]: 2190^a μmol; VFA-C [1]: 5455^a μmol; pH [1]: 6.47^b; valerate [1]: 19.5^a μmol; H2 (% of fermentation gas) [1]: 0.24^b %; NDF remaining (% of DM) [2]: 35.7^b % of DM |
| O=S(=O)([O-])[O-].[Na+].[Na+] [SO4, Na2SO4] | 0.073^b % | 0 µmol | 2628^a μmol | 538^a μmol | 7.00^a | 2.57 | 198^a μmol | 5.02^a % | 14.4^a % | 0.182^a | 85^a | 363^a μmol | 52.1^a % | 85.4^b % | 2298^ab μmol | 0 µmol | 1459^a | 5.0^b μmol | 12.0^a μmol | 13.0^ab μmol | Eh: −247^ab; Propionate [1]: 538^a μmol; Total VFA [1]: 2162^a μmol; VFA-C [1]: 5370^a μmol; pH [1]: 6.45^b; valerate [1]: 16.7^b μmol; H2 (% of fermentation gas) [1]: 0.24^b %; NDF remaining (% of DM) [2]: 36.0^b % of DM |
